Measured values as given in EP4682146A1, “COMPOSITION INCLUDING NOVEL PYRIDOINDOLE DERIVATIVE COMPOUND AS ACTIVE INGREDIENT FOR PREVENTION OR TREATMENT OF NEURODEGENERATIVE DISEASES” (Neurotarge Co., Ltd., priority 2023, dated 2024).

What follows are compounds tested against T1, Tau-Synaptogyrin3 interaction (Homo sapiens, UniProt O43761+P10636) (assay: Cell-based split luciferase (NanoBit) protein complementary assay for Tau-Synaptogyrin3 interaction in stable cell line HEK293T-TK252-1E2). Conditions: HEK293T-TK252-1E2 cells, 48 hrs compound treatment, L/F value (luciferase activity/fluorescent intensity) compared to DMSO control.
T1 construct: expressed in transfected cells
T1 sequence (P10636 1-441 isoform P10636-8): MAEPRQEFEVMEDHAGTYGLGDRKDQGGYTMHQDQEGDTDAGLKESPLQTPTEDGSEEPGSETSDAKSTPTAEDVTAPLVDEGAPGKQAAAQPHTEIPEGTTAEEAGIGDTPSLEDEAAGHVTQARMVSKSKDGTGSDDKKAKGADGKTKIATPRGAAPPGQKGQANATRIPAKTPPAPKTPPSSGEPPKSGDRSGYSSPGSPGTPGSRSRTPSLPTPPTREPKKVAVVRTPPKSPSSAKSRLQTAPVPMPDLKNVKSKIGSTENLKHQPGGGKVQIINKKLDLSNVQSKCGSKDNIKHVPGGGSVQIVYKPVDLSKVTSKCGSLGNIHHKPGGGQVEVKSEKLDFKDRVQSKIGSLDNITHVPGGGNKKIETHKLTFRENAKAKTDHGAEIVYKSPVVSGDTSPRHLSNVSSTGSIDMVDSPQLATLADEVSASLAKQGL
T1 sequence (O43761 whole entry): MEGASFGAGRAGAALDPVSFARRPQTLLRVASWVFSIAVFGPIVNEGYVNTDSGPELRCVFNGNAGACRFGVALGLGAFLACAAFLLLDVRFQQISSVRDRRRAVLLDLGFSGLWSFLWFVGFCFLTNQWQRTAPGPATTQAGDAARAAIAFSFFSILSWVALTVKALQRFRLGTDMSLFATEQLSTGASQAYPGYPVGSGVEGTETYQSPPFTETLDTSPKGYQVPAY
Protocol: Live cell luciferase assay: Live cell luciferase activity was measured using NanoGlo® Live Cell Assay System (Cat# N2012. Promega, WI, USA), according to manufacturer's instruction. All microplate-based measurement was performed with BioTek Synergy H1 (Agilent. CA, USA).
For producing HEK293T-TK252 stable cell line for screening, BglII-linearized pTK252 was transfected to HEK293T cells. After 24 hrs transfection, the transfected cells were cultured in the culture media containing 1 µg/ml puromycin (10 mM in DMSO, Cat# J61278/ Alfa Aesar. ThermoFisher Korea, Seoul, Korea) for 9 days. Regular media change was performed in every 3 days with fresh puromycin of indicating concentration during the whole selection period. The selected cells were trypsinized and diluted to 5 cells/ml and seeded to 4x 96 well cell culture plates (100 µl/well), and cultured with the cell culture media containing 1 µg/ml puromycin for 11 days. 18 wells that contained only GFP-positive cells were selected for expansion, and cultured with the cell culture media containing 0.1-0.2 µg/ml puromycin for 14 days. 10 clones were discarded during the expansion due to emerging of non-GFP cells, and 8 clones were validated. The selected clone (1E2) was cultured with the cell culture media containing 0.5 µg/ml puromycin for further experiments.
3 µmol of 1,728 compounds were purchased from Otava Chemicals MB (Vilniaus, Lithuania), dissolved into 300 µl DMSO (10 mM) and stored at -80°C. 4x10^4 HEK293T-TK252-1E2 cells were seeded with 100 µl of the cell culture media into 96 white well cell culture plates (Cat# 30196. SPL, Seoul, Korea), 48 hrs prior to compound treatment. For 10 µM compound treatment, 10 mM compound stock was diluted to 50 µM with the cell culture media, and 25 µl of the diluted compound was added to the designated wells of the 96 well plates. For dose-response experiments, the amount of compounds for dilution was adjusted to fit the volume indicated above. After 48 hrs compound treatment, the cells were washed once with OptiMEM and live cell luciferase activity, fluorescent intensity and fluorescence area scan was measured.
1,728 compounds were treated at 10 µM to HEK293T-TK252-1E2 cells and incubated for 48 hrs. […] Single wash step with culture media without FBS was included before measurement to discard dead cells and to remove FBS that affects luciferase assay. […] Fluorescent intensity was taken for normalization, which is expected to be proportion to the cell number at the measuring point. L/F value which is luciferase activity normalized with fluorescent intensity (L/F = Luciferase activity/ Fluorescent intensity) was calculated for all measurements and compared to L/F value of DMSO controls to calculated the size of inhibitory effect. […] Fluorescence area scan (FA) performed right after luciferase activity and fluorescent intensity measurement, to validate total remaining fluorescent cells in a well as a proxy to the cellular toxicity. FA value was in proportion to WST assay results (data not shown), and average CV of triplicates of all measurements was 0.04.
61 compounds were further tested for dose-response profile, based on inhibitory effect that was measured by L/F value (<60%) and FA-based cell viability (>90%) at 10 µM compared to DMSO control. 10 compounds were considered as hit compounds through three times of reproduction.

IC50	SMILES
3 to 12 µM	Cc1ccc(C(=O)N2CCc3[nH]c4ccc(-c5ccccc5C#N)cc4c3C2)cc1 [Formula 59, 2-(2-(4-Methylbenzoyl)-2,3,4,5-tetrahydro-1H-pyrido[4,3-b]indol-8-yl)benzonitrile]
12 to 25 µM	O=C(c1cccnc1)N1CCc2[nH]c3ccc(-c4cccnc4)cc3c2C1 [Formula 31, Pyridin-3-yl(8-(pyridin-3-yl)-1,3,4,5-tetrahydro-2H-pyrido[4,3-b]indol-2-yl)methanone]
3 to 12 µM	Cc1cncc(C(=O)N2CCc3[nH]c4ccc(-c5ccccc5)cc4c3C2)c1 [Formula 4, (5-methylpyridin-3-yl)(8-phenyl-1,3,4,5-tetrahydro-2H-pyrido[4,3-b]indol-2-yl)methanone]
3 to 12 µM	Cc1ccccc1-c1ccc2[nH]c3c(c2c1)CN(C(=O)c1cccnc1)CC3 [Formula 20, Pyridin-3-yl(8-(o-tolyl)-1,3,4,5-tetrahydro-2H-pyrido[4,3-b]indol-2-yl)methanone]
< 3 µM	O=C(c1ccccc1)N1CCc2[nH]c3ccc(-c4ccc(Cl)cc4)cc3c2C1 [Formula 70, (8-(4-chlorophenyl)-1,3,4,5-tetrahydro-2H-pyrido[4,3-b]indol-2-yl)(phenyl)methanone]
3 to 12 µM	Cc1ccc(-c2ccc3[nH]c4c(c3c2)CN(C(=O)c2ccc(N(C)C)cc2)CC4)cc1 [Formula 69, (4-(Dimethylamino)phenyl)(8-(p-tolyl)-1,3,4,5-tetrahydro-2H-pyrido[4,3-b]indol-2-yl)methanone]
3 to 12 µM	Cc1cccc(C(=O)N2CCc3[nH]c4ccc(-c5ccc(C#N)cc5)cc4c3C2)c1 [Formula 53]
12 to 25 µM	Cc1ccccc1-c1ccc2[nH]c3c(c2c1)CN(C(=O)c1cccc(Cl)c1)CC3 [Formula 26, (3-chlorophenyl)(8-(o-tolyl)-1,3,4,5-tetrahydro-2H-pyrido[4,3-b]indol-2-yl)methanone]
< 3 µM	N#Cc1ccc(-c2ccc3[nH]c4c(c3c2)CN(C(=O)c2ccccc2)CC4)cc1 [Formula 50]
12 to 25 µM	Cc1ccc(C(=O)N2CCc3[nH]c4ccc(-c5ccc(C)nc5)cc4c3C2)cn1 [Formula 49, (6-methylpyridin-3-yl)(8-(6-methylpyridin-3-yl)-1,3,4,5-tetrahydro-2H-pyrido[4,3-b]indol-2-yl)methanone]
3 to 12 µM	Cc1cncc(C(=O)N2CCc3[nH]c4ccc(-c5ccccc5C)cc4c3C2)c1 [Formula 22, (5-methylpyridin-3-yl)(8-(o-tolyl)-1,3,4,5-tetrahydro-2H-pyrido[4,3-b]indol-2-yl)methanone]
3 to 12 µM	O=C(c1ccccc1)N1CCc2[nH]c3ccc(-c4ccccc4)cc3c2C1 [Formula 9, Phenyl(8-phenyl-1,3,4,5-tetrahydro-2H-pyrido[4,3-b]indol-2-yl)methanone]
3 to 12 µM	Cc1ccc(NC(=S)N2CCc3[nH]c4ccc(-c5ccc(C)cc5)cc4c3C2)cc1 [Formula 76, N,8-di-p-tolyl-1,3,4,5-tetrahydro-2H-pyrido[4,3-b]indole-2-carbothioamide]
3 to 12 µM	Cn1ccc2c(C(=O)N3CCc4[nH]c5ccc(-c6ccccc6)cc5c4C3)cccc21 [Formula 10, (1-methyl-1H-indol-4-yl)(8-phenyl-1,3,4,5-tetrahydro-2H-pyrido[4,3-b]indol-2-yl)methanone]
3 to 12 µM	Cc1ccc(C(=O)N2CCc3[nH]c4ccc(-c5ccccc5)cc4c3C2)cn1 [Formula 5, (6-methylpyridin-3-yl)(8-phenyl-1,3,4,5-tetrahydro-2H-pyrido[4,3-b]indol-2-yl)methanone]
3 to 12 µM	O=C(c1cccnc1)N1CCc2[nH]c3cc(-c4ccccc4)ccc3c2C1 [Formula 35, (7-phenyl-1,3,4,5-tetrahydro-2H-pyrido[4,3-b]indol-2-yl)(pyridin-3-yl)methanone]
12 to 25 µM	Cc1ccc(-c2ccc3[nH]c4c(c3c2)CN(C(=O)c2cccc(C)c2)CC4)cc1 [Formula 38, m-Tolyl(8-(p-Tolyl)-1,3,4,5-tetrahydro-2H-pyrido[4,3-b]indol-2-yl)methanone]

IC50	SMILES
3 to 12 µM	COc1ccc(C(=O)N2CCc3[nH]c4ccc(-c5ccccc5)cc4c3C2)cc1 [Formula 17, (4-methoxyphenyl)(8-phenyl-1,3,4,5-tetrahydro-2H-pyrido[4,3-b]indol-2-yl)methanone]
12 to 25 µM	Cc1ccc(-c2ccc3[nH]c4c(c3c2)CN(C(=S)Nc2ccc(C#N)cc2)CC4)cc1 [Formula 77, N-(4-cyanophenyl)-8-(p-tolyl)-1,3,4,5-tetrahydro-2H-pyrido[4,3-b]indole-2-carbothioamide]
3 to 12 µM	N#Cc1cccc(-c2ccc3[nH]c4c(c3c2)CN(C(=O)c2ccccc2)CC4)c1 [Formula 58, 3-(2-benzoyl-2,3,4,5-tetrahydro-1H-pyrido[4,3-b]indol-8-yl)benzonitrile]
3 to 12 µM	CCn1c2c(c3cc(-c4ccc(C)cc4)ccc31)CN(C(=O)c1cccnc1)CC2 [Formula 46, (5-ethyl-8-(p-tolyl)-1,3,4,5-tetrahydro-2H-pyrido[4,3-b]indol-2-yl)(pyridin-3-yl)methanone]
3 to 12 µM	CCc1ccc(C(=O)N2CCc3[nH]c4ccc(-c5ccccc5)cc4c3C2)cc1 [Formula 16, (4-ethylphenyl)(8-phenyl-1,3,4,5-tetrahydro-2H-pyrido[4,3-b]indol-2-yl)methanone]
< 3 µM	O=C(c1cccnc1)N1CCc2[nH]c3ccc(-c4ccc(F)cc4)cc3c2C1 [Formula 65, (8-(4-fluorophenyl)-1,3,4,5-tetrahydro-2H-pyrido[4,3-b]indol-2-yl)(pyridin-3-yl)methanone]
12 to 25 µM	N#Cc1ccc(-c2ccc3[nH]c4c(c3c2)CN(C(=O)c2cccc(C#N)c2)CC4)cc1 [Formula 55]
< 3 µM	COc1ccc(-c2ccc3[nH]c4c(c3c2)CN(C(=O)c2cccnc2)CC4)cc1 [Formula 63, (8-(4-Methoxyphenyl)-1,3,4,5-tetrahydro-2H-pyrido[4,3-b]indol-2-yl)(pyridin-3-yl)methanone]
< 3 µM	Cc1cccc(-c2ccc3[nH]c4c(c3c2)CN(C(=O)c2cccnc2)CC4)c1 [Formula 27, Pyridin-3-yl(8-(m-tolyl)-1,3,4,5-tetrahydro-2H-pyrido[4,3-b]indol-2-yl)methanone]
3 to 12 µM	O=C(c1cncnc1)N1CCc2[nH]c3ccc(-c4ccccc4)cc3c2C1 [Formula 8, (8-phenyl-1,3,4,5-tetrahydro-2H-pyrido[4,3-b]indol-2-yl)(pyrimidin-5-yl)methanone]
3 to 12 µM	Cc1ccc(C(=O)N2CCc3[nH]c4ccc(-c5ccc(C6CCCCC6)cc5)cc4c3C2)cn1 [Formula 67, (8-(4-Cyclohexylphenyl)-1,3,4,5-tetrahydro-2H-pyrido[4,3-b]indol-2-yl)(6-methylpyridin-3-yl)methanone]
12 to 25 µM	Cc1ccc(-c2ccc3[nH]c4c(c3c2)CN(C(=O)c2cccnc2)CC4)cn1 [Formula 48, (8-(6-methylpyridin-3-yl)-1,3,4,5-tetrahydro-2H-pyrido[4,3-b]indol-2-yl)(pyridin-3-yl)methanone]
3 to 12 µM	COc1cccc(C(=O)N2CCc3[nH]c4ccc(-c5ccccc5)cc4c3C2)c1 [Formula 18, (3-methoxyphenyl)(8-phenyl-1,3,4,5-tetrahydro-2H-pyrido[4,3-b]indol-2-yl)methanone]
3 to 12 µM	N#Cc1ccccc1-c1ccc2[nH]c3c(c2c1)CN(C(=O)c1ccccc1)CC3 [Formula 61, 2-(2-benzoyl-2,3,4,5-tetrahydro-1H-pyrido[4,3-b]indol-8-yl)benzonitrile]
12 to 25 µM	Cc1ccc(-c2ccc3[nH]c4c(c3c2)CN(C(=O)Nc2ccccc2)CC4)cc1 [Formula 75, N-phenyl-8-(p-tolyl)-1,3,4,5-tetrahydro-2H-pyrido[4,3-b]indole-2-carboxamide]
3 to 12 µM	Cc1ccc(-c2ccc3[nH]c4c(c3c2)CN(C(=S)Nc2ccccc2)CC4)cc1 [Formula 74, N-phenyl-8-(p-tolyl)-1,3,4,5-tetrahydro-2H-pyrido[4,3-b]indole-2-carbothioamide]
